The values that follow come from ChEMBL document CHEMBL1134311, “Nonsteroidal selective glucocorticoid modulators: the effect of C-5 alkyl substitution on the transcriptional activation/repression profile of 2,5-dihydro-10-methoxy-2,2,4-trimethyl-1H-[1]benzopyrano[3,4-f]quinolines” (J Med Chem, 2001).

Molecules are shown by their SMILES.

In general, EC50 refers to the concentration at which the effect is half-maximal. Higher therefore signals lower potency in that assay. One may read the Ki as a measure of affinity in units of concentration, obtained from inhibition or displacement. The low end stands for a stronger hold on the target, the high end for a looser hold on the target.

In test [1] the target is T1, Glucocorticoid receptor (Homo sapiens, UniProt P04150).
T1 sequence (P04150 whole entry): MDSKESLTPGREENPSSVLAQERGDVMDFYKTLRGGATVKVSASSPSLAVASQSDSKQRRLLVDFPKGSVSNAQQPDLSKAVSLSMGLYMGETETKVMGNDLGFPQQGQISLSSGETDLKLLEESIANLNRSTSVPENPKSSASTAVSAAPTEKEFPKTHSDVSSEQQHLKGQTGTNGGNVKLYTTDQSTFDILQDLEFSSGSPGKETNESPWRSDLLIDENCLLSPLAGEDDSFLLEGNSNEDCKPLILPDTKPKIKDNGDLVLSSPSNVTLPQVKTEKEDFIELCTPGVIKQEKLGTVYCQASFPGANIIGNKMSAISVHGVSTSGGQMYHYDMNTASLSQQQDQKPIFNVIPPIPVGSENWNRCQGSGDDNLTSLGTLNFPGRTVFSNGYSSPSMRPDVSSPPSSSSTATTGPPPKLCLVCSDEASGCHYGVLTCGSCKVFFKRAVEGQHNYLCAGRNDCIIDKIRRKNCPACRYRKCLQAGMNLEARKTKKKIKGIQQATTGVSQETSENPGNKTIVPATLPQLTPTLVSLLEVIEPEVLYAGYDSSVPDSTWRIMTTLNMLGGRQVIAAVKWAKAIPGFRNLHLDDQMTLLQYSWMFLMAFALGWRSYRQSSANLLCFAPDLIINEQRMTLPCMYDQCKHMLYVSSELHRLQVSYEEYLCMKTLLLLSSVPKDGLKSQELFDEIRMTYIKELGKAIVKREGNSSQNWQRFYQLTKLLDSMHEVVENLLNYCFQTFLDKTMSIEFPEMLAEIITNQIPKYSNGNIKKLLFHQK
Put plainly: Effective concentration in HepG2 cells transfected with LUC gene (E-sel-Luc). Format: functional, cell-based.

Test [2] addresses T1, Glucocorticoid receptor. Kind of test: Binding affinity towards glucocorticoid receptor (GR) by displacing [3H]dexamethasone.
The target in test [3] is T1, Glucocorticoid receptor. Kind of test: The effective concentration in CV-1 cells for glucocorticoid response element activation (GRE). The test is classed as functional, cell-based.
The target of test [4] is T2, Progesterone receptor (Homo sapiens, UniProt P06401).
T2 sequence (P06401 whole entry): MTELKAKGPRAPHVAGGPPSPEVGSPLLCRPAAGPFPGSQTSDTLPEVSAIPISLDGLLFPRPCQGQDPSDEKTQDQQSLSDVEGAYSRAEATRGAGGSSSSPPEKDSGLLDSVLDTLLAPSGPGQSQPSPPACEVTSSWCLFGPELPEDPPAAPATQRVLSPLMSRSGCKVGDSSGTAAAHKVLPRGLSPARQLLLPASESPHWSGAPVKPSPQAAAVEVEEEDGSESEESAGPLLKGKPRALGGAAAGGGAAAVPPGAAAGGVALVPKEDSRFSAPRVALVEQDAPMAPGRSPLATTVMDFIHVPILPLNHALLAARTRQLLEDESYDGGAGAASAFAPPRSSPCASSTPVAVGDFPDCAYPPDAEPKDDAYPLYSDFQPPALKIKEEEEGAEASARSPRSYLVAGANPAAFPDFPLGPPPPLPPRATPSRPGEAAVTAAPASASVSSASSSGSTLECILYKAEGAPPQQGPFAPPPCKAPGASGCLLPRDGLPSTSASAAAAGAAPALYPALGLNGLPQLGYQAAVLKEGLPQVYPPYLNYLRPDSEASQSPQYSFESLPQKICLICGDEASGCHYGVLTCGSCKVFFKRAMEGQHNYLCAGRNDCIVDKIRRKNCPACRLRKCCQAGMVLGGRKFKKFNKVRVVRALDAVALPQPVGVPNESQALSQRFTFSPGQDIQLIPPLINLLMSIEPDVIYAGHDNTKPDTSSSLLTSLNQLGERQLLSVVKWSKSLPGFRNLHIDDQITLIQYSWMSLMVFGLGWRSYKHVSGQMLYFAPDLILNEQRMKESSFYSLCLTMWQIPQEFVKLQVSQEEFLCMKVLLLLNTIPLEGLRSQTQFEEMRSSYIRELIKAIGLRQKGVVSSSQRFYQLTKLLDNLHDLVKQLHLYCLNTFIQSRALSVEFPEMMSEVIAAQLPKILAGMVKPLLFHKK
Put plainly: Binding affinity towards progesterone receptor (PR) by displacing [3H]progesterone.

Regarding `C/C=C/C1Oc2cccc(OC)c2-c2ccc3c(c21)C(C)=CC(C)(C)N3` (centres undefined), the results for the EC50 in test [1] and in test [3] were 0.144 µM and 0.4 µM, respectively. Also, the Ki stood at 0.009 µM in test [2] and 2.1 µM in test [4].
`COc1cccc2c1-c1ccc3c(c1C(CC(C)C)O2)C(C)=CC(C)(C)N3` (centres undefined): the EC50 worked out at 0.069 µM in test [1] and 0.223 µM in test [3]. Further, the Ki in test [2] is 0.0095 µM; in test [4], more than 5 µM.
Consider `C#CCC1Oc2cccc(OC)c2-c2ccc3c(c21)C(C)=CC(C)(C)N3` (centres undefined), for which the EC50 in test [1] stood at 0.027 µM; in test [3] it was 0.034 µM. Moreover, the Ki in test [4] worked out at 0.76 µM.
Take `C/C=C\C1Oc2cccc(OC)c2-c2ccc3c(c21)C(C)=CC(C)(C)N3` (centres undefined): the EC50 in test [1] turned out to be 0.168 µM; in test [3] it was 0.46 µM.
As for `COc1cccc2c1-c1ccc3c(c1C(CC(=O)O)O2)C(C)=CC(C)(C)N3` (centres undefined), the EC50 in test [1] and in test [3] was more than 5 µM each time. In addition, the Ki in test [2] and in test [4] was more than 5 µM in each case.
In the case of `CNC(=O)CC1Oc2cccc(OC)c2-c2ccc3c(c21)C(C)=CC(C)(C)N3` (centres undefined), the EC50 in test [1] and in test [3] was more than 5 µM in each case. In addition, the results for the Ki in test [2] and in test [4] were 3.2 µM and more than 5 µM, respectively.
Take `COc1cccc2c1-c1ccc3c(c1C(CCO)O2)C(C)=CC(C)(C)N3` (centres undefined): in test [4], the Ki is more than 5 µM.
`COc1cccc2c1-c1ccc3c(c1CO2)C(C)=CC(C)(C)N3`: the EC50 in test [1] and in test [3] was more than 5 µM throughout. Besides, the Ki in test [4] is more than 5 µM.
Turning to `COc1cccc2c1-c1ccc3c(c1C(C(C)C)O2)C(C)=CC(C)(C)N3` (centres undefined), the EC50 in test [1] turned out to be 0.039 µM; in test [3], 0.146 µM. The compound further had a Ki in test [4] of more than 5 µM.
For `CCC1Oc2cccc(OC)c2-c2ccc3c(c21)C(C)=CC(C)(C)N3` (centres undefined), the half-maximal effective concentration (EC50) is 0.09 µM in test [1] and 0.264 µM in test [3]. In addition, the Ki in test [4] is more than 5 µM.
Regarding `COc1cccc2c1-c1ccc3c(c1C(CC(=O)N(C)C)O2)C(C)=CC(C)(C)N3` (centres undefined), the EC50 in test [1] and in test [3] was more than 5 µM throughout. In test [4], this compound yielded a Ki of more than 5 µM.
`COc1cccc2c1-c1ccc3c(c1C(CCN(C)C)O2)C(C)=CC(C)(C)N3` (centres undefined) came in with a Ki in test [4] of more than 5 µM.
In turn, `COc1cccc2c1-c1ccc3c(c1C(C1CCCCC1)O2)C(C)=CC(C)(C)N3` (centres undefined) returned an inhibition constant (Ki) in test [4] of more than 5 µM.
For the compound `C=CCCC1Oc2cccc(OC)c2-c2ccc3c(c21)C(C)=CC(C)(C)N3` (centres undefined), the half-maximal effective concentration (EC50) in test [1] came out at 0.022 µM; in test [3] it was 0.078 µM. Besides, the Ki in test [2] was 0.0081 µM; in test [4], more than 5 µM.
Regarding `CCCC1Oc2cccc(OC)c2-c2ccc3c(c21)C(C)=CC(C)(C)N3` (centres undefined), the EC50 in test [1] is 0.07 µM; in test [3], 0.075 µM. Moreover, the Ki is 0.005 µM in test [2] and more than 5 µM in test [4].
Consider `COc1cccc2c1-c1ccc3c(c1C(C1CCCC1)O2)C(C)=CC(C)(C)N3` (centres undefined), for which the Ki in test [4] is more than 5 µM.
On to `COc1cccc2c1-c1ccc3c(c1C(C(N)=O)O2)C(C)=CC(C)(C)N3` (centres undefined), for which the EC50 in test [1] and in test [3] was more than 5 µM in each case. Also, the Ki in test [2] and in test [4] was more than 5 µM each time.
In the case of `COc1cccc2c1-c1ccc3c(c1C(Cc1ccccc1)O2)C(C)=CC(C)(C)N3` (centres undefined), the Ki in test [4] is more than 5 µM.
For the compound `COc1cccc2c1-c1ccc3c(c1C(c1cccc(OCSC)c1)O2)C(C)=CC(C)(C)N3` (centres undefined), the EC50 is 0.004 µM in test [1] and 0.009 µM in test [3]. In test [4], this compound gave a Ki of more than 5 µM.
`C=CCC1Oc2cccc(OC)c2-c2ccc3c(c21)C(C)=CC(C)(C)N3` (racemic) [AL-43]: the EC50 in test [1] was found to be 0.013 µM; in test [3] it was 0.033 µM. The results for the Ki in test [2] and in test [4] were 0.0025 µM and 1.8 µM, respectively.
On to `C=CCC1Oc2cccc(OC)c2-c2ccc3c(c21)C(C)=CC(C)(C)N3` (single isomer, unassigned; (-)) [AL-43], for which the half-maximal effective concentration (EC50) in test [1] was determined as 0.0069 µM; in test [3], 0.014 µM. In test [4], the Ki is 1.3 µM.
`C=CCC1Oc2cccc(OC)c2-c2ccc3c(c21)C(C)=CC(C)(C)N3` (stereo in doubt; 37) [AL-43]: the EC50 amounted to 0.45 µM in test [1] and 0.52 µM in test [3]. Further, the inhibition constant (Ki) in test [2] was 0.15 µM; in test [4], more than 5 µM.
